In data set [1] the test system is rat dorsal root ganglion (DRG) cells. Kind of data set: Rat dorsal root ganglion (DRG) excitability response to electrical field stimulation. The format is cell-based. The conditions noted are these: adult rat DRG cells. How it is done: Rat Dorsal Root Ganglion Excitability Response of Representative Compounds Dorsal root ganglions (DRGs) were dissected from adult rats. The tissue was processed, and cells were seeded into cell culture plates (48 center wells of one quadrant in 384-well plates) and cultured for 2 days prior to Electrical field stimulation (EFS). To visualize the neuronal excitability response, intracellular Ca^+2 transients were monitored using the Ca^+2 indicator, Ca5. Ca5 was added to the cultures 1 h prior to EFS. Representative compounds of the invention (i.e., test compounds) and reference compound, tetracaine, were added in concentration-response format encompassing six concentrations, performed in duplicate. The highest concentration tested was typically 30 μM with 1 in 3 dilutions generating the subsequent concentrations.
Effects on DRG excitability by the test compounds and standard were evaluated using four EFS protocols as disclosed in Table 2.
Experimental results were performed using two seperate sets of plates using separate test compound and standard dilutions, to provide n=2. In the first set of experiments, compounds were added 24 h prior to EFS to increase the possibility to also detect more long-term compound effects. In the second set of experiments the compounds were added directly prior to EFS. Excitability response to EFS was analyzed as the average fluorescence ratio (peak/baseline) change per well. All plates were evaluated using high content imaging equipment post-EFS, imaging the Ca5 background staining to detect any possibile compound-related toxic effects.
Average response by the reference compound, tetracaine, was 4.05 μM.

A short description of data set [2]: Metabolism by human liver microsomes. The format is in vitro ADME. Conditions: human liver microsomes 1 mg/mL protein, 10 μM, in the presence of NADPH, LC-MS/MS. As for the experimental part: Representative compounds of the invention (i.e., test compounds) and the positive control, 7-ethoxycoumarin, were prepared as stock solutions at 10 mM in DMSO and eventually diluted to 10 μM in the test plate, with an appropriate amount of acetonitrile and tris HCl buffer. Final DMSO and acetonitrile concentrations were […] and 0.5% respectively. NADPH was prepared in tris HCl buffer to a stock of 10 mM. A frozen aliquot of liver microsomes was retrieved from the freezer (−80° C.) and thawed by placing the tube on wet ice. After thawing, the tubes were gently mixed and the required amount, transferred to tris HCl buffer. Test compounds or positive control were pre-incubated, separately, for 10 minutes, with liver microsomes (1 mg/mL protein), at 37° C., in 100 mM Tris HCl at pH 7.5. After preincubation the reaction was started by adding 1 mM NADPH (pre-equilibrated to 30° C.) and the reaction allowed to proceed for 60 minutes. At 60 minutes, a 50 μL aliquot was removed and quenched with 200 uL of acetonitrile containing a mixture of internal standards (Tolbutamide (500 ng/mL) and Telmistartan (500 ng/mL)) and vortexed then centrifuged at 4000 rpm for 10 minutes (Eppendorf 5810R). The supernatant was transferred to a 96 well plate for LC-MS/MS analysis.
An LC-MS/MS method was devised for the test compounds and the control, using a AB Sciex API 4000 system coupled to a NEXAR™ UHPLC (Shimadzu) system. Analytes were separated on a Phenomenex Kinetex C18 column (50×2.1 mm, 5 μm) using a gradient that was appropriate for each compound, at a flow rate of 1 ml/minute, utilizing a mobile phase of 0.1% formic acid in MILLI-Q™ water (A) and 0.1% formic acid in acetonitrile (B). The MS instrument was operated in positive mode (ESI+)/negative (ESI−). The multiple reaction monitoring (MRM) transition for test and control compounds was used for the LC-MS/MS analysis. MRM transitions for control compound 7-ethoxycoumarinm were Quadropole 1: 191.0, Quadropole 3:163.0, dwell time: 75 msec, using curtain gas settings of 5 V, ion-spray voltage of 5500 V, temperature of 50° C. and gas settings for nebulizer and auxiliary set to 30 and 40 psi, respectively. The interface heater was kept on. Entrance potential and collision cell exit potential were varied to tune for a specific compound.
Using a suitable LC-MS/MS method, the percentage of drug remaining at 60 minutes ([…]) was assessed by comparing the average analyte to internal standard area ratio at 60 minutes to the average analyte to internal standard area ratio at 0 time control, as a percentage, from a 5 to 10 μL sample injection.
According to the above assay, the test compounds listed in Table 7 below were active in the Human liver microsome assay at 10 μM and the % of drug remaining after 60 minutes (PDR60), in the presence of NADPH, was assessed by LC-MS/MS. Average PDR60 for the standard compound, 7-ethoxycoumarin was <=65% in the presence of NADPH. Scoring for the test compounds, in the presence of NADPH, was as follows: “A” represents a PDR60 of 81 to 100%, “B” represents a PDR60 of 61 to 80%, “C” represents a PDR60 of 31 to 60% and “D” represents a PDR60 of 0 to 30%.
On the technique in general: Microsomes from liver hold many membrane-bound enzymes, among them those of drug oxidation.

Where [3] appears, read: Ca5 Ca2+ indicator, six concentrations, highest typically 30 μM, read-out: Scoring: EC50, modulation of rat DRG excitability.

Molecules are shown by their SMILES. Like-named read-outs stand apart in the source and are kept apart here. Where only a bound is given, the exact number is not on record here.

As for `C[C@H]1CC[C@H]2[C@H](CN)[C@@H]([C@@]3(C)Cc4cnn(-c5ccc(F)cc5)c4C[C@@H]3CO)CC[C@]12C` [Ia-47, ((5R,6S)-5-((1S,3aS,4S,5S,7aR)-4-(aminomethyl)-1,7a-dimethyloctahydro-1H-inden-5-yl)-1-(4-fluorophenyl)-5-methyl-4,5,6,7-tetrahydro-1H-indazol-6-yl)methanol], the EC50 in data set [1] (setting [3]) was less than 2 µM.

Turning to `C=C1CC[C@H]2[C@H](CN)[C@@H]([C@@]3(C)Cc4cnn(-c5ccc(F)cc5)c4C[C@@H]3CO)CC[C@]12C` [Ia-12, ((5R,6S)-5-((3aS,4R,5S,7aS)-4-(aminomethyl)-7a-methyl-1-methyleneoctahydro-1H-inden-5-yl)-1-(4-fluorophenyl)-5-methyl-4,5,6,7-tetrahydro-1H-indazol-6-yl)methanol], the “Scoring: % of drug remaining after 60 minutes (PDR60)” value (from here on “Scoring: % of drug remaining”) in data set [2] is “D (“D” represents a PDR60 of 0 to 30%)”. For the same compound, the EC50 in data set [1] (setting [3]) is less than 2 µM.

With `C=C1CC[C@H]2[C@H](CN)[C@@H]([C@@]3(C)Cc4cnn(-c5ccc(Oc6ccccc6)cc5)c4C[C@@H]3CO)CC[C@]12C` [Ia-28, ((5R,6S)-5-((3aS,4R,5S,7aS)-4-(aminomethyl)-7a-methyl-1-methyleneoctahydro-1H-inden-5-yl)-5-methyl-1-(4-phenoxyphenyl)-4,5,6,7-tetrahydro-1H-indazol-6-yl)methanol], in data set [2], the “Scoring: % of drug remaining” value is recorded as “B (“B” represents a PDR60 of 61 to 80%)”. For the same compound, the EC50 in data set [1] (setting [3]) was less than 2 µM.

With `C=C1CC[C@H]2[C@H](CN)[C@@H]([C@@]3(C)Cc4cnn(-c5ccc(C(=O)c6ccccc6)cc5)c4C[C@@H]3CO)CC[C@]12C` [Ia-20, (4-((5R,6S)-5-((3aS,4R,5S,7aS)-4-(aminomethyl)-7a-methyl-1-methyleneoctahydro-1H-inden-5-yl)-6-(hydroxymethyl)-5-methyl-4,5,6,7-tetrahydro-1H-indazol-1-yl)phenyl)(phenyl)methanone], the “Scoring: % of drug remaining” value in data set [2] is listed as “B (“B” represents a PDR60 of 61 to 80%)”. For the same compound, in data set [1] (setting [3]), the EC50 was less than 2 µM.

For `C=C1CC[C@H]2[C@H](CN)[C@@H]([C@@]3(C)Cc4cnn(-c5ccc(Oc6ccc(C(=O)O)cc6)cc5)c4C[C@@H]3CO)CC[C@]12C` [Ia-36, 4-(4-((5R,6S)-5-((3aS,4R,5S,7aS)-4-(aminomethyl)-7a-methyl-1-methyleneoctahydro-1H-inden-5-yl)-6-(hydroxymethyl)-5-methyl-4,5,6,7-tetrahydro-1H-indazol-1-yl)phenoxy)benzoic acid], the “Scoring: % of drug remaining” value in data set [2] is given as “A (“A” represents a PDR60 of 81 to 100%)”. In data set [1] (setting [3]), the EC50 is more than 15 µM.

`CCCCNc1ccc(C(=O)OCCN(C)C)cc1` [tetracaine, reference compound]: in data set [1] (reference compound, read-out: Average response (rat DRG excitability)), the EC50 is 4.05 µM.

As for `COc1ccc(Cn2cc3c(n2)C[C@H](CO)[C@@](C)([C@H]2CC[C@]4(C)[C@@H](C)CC[C@H]4[C@@H]2CN)C3)cc1` [Ia-52, ((5R,6S)-5-((1S,3aS,4S,5S,7aR)-4-(aminomethyl)-1,7a-dimethyloctahydro-1H-inden-5-yl)-2-(4-methoxybenzyl)-5-methyl-4,5,6,7-tetrahydro-2H-indazol-6-yl)methanol], the “Scoring: % of drug remaining” value in data set [2] was “A (“A” represents a PDR60 of 81 to 100%)”. Moreover, the EC50 in data set [1] (setting [3]) was less than 2 µM.

Take `C=C1CC[C@H]2[C@H](CN)[C@@H]([C@@]3(C)Cc4cnn(-c5ccc(F)c(F)c5)c4C[C@@H]3CO)CC[C@]12C` [Ia-22, ((5R,6S)-5-((3aS,4R,5S,7aS)-4-(aminomethyl)-7a-methyl-1-methyleneoctahydro-1H-inden-5-yl)-1-(3,4-difluorophenyl)-5-methyl-4,5,6,7-tetrahydro-1H-indazol-6-yl)methanol]: the “Scoring: % of drug remaining” value in data set [2] is given as “D (“D” represents a PDR60 of 0 to 30%)”. In data set [1] (setting [3]), the EC50 was less than 2 µM.

`C=C1CC[C@H]2[C@H](CN)[C@@H]([C@@]3(C)Cc4cnn(-c5ccc(Oc6ccc(F)cc6)cc5)c4C[C@@H]3CO)CC[C@]12C` [Ia-24, ((5R,6S)-5-((3aS,4R,5S,7aS)-4-(aminomethyl)-7a-methyl-1-methyleneoctahydro-1H-inden-5-yl)-1-(4-(4-fluorophenoxy)phenyl)-5-methyl-4,5,6,7-tetrahydro-1H-indazol-6-yl)methanol]: the “Scoring: % of drug remaining” value in data set [2] was “B (“B” represents a PDR60 of 61 to 80%)”. The EC50 in data set [1] (setting [3]) is less than 2 µM.

In the case of `C=C1CC[C@H]2[C@H](CN)[C@@H]([C@@]3(C)Cc4cn(-c5ccc(Oc6ccccc6)cc5)nc4C[C@@H]3CO)CC[C@]12C` [Ia-29, ((5R,6S)-5-((3aS,4R,5S,7aS)-4-(aminomethyl)-7a-methyl-1-methyleneoctahydro-1H-inden-5-yl)-5-methyl-2-(4-phenoxyphenyl)-4,5,6,7-tetrahydro-2H-indazol-6-yl)methanol], the “Scoring: % of drug remaining” value in data set [2] was “C (“C” represents a PDR60 of 31 to 60%)”. The EC50 in data set [1] (setting [3]) is less than 2 µM.

`C=C1CC[C@H]2[C@H](CN)[C@@H]([C@@]3(C)Cc4cn(-c5ccc(OC)cc5)nc4C[C@@H]3CO)CC[C@]12C` [Ia-15, ((5R,6S)-5-((3aS,4R,5S,7aS)-4-(aminomethyl)-7a-methyl-1-methyleneoctahydro-1H-inden-5-yl)-2-(4-methoxyphenyl)-5-methyl-4,5,6,7-tetrahydro-2H-indazol-6-yl)methanol]: the “Scoring: % of drug remaining” value in data set [2] is “B (“B” represents a PDR60 of 61 to 80%)”. Further, in data set [1] (setting [3]), the EC50 lay within 6 to 15 µM.

For `C=C1CC[C@H]2[C@H](CN)[C@@H]([C@@]3(C)Cc4cnn(Cc5ccc(F)cc5)c4C[C@@H]3CO)CC[C@]12C` [Ia-18, ((5R,6S)-5-((3aS,4R,5S,7aS)-4-(aminomethyl)-7a-methyl-1-methyleneoctahydro-1H-inden-5-yl)-1-(4-fluorobenzyl)-5-methyl-4,5,6,7-tetrahydro-1H-indazol-6-yl)methanol], the EC50 in data set [1] (setting [3]) was less than 2 µM.

`C=C1CC[C@H]2[C@H](CN)[C@@H]([C@@]3(C)Cc4cnn(-c5ncc(F)cn5)c4C[C@@H]3CO)CC[C@]12C` [Ia-26, ((5R,6S)-5-((3aS,4R,5S,7aS)-4-(aminomethyl)-7a-methyl-1-methyleneoctahydro-1H-inden-5-yl)-1-(5-fluoropyrimidin-2-yl)-5-methyl-4,5,6,7-tetrahydro-1H-indazol-6-yl)methanol]: the “Scoring: % of drug remaining” value in data set [2] is listed as “D (“D” represents a PDR60 of 0 to 30%)”. For the same compound, in data set [1] (setting [3]), the EC50 fell in the range of 6 to 15 µM.

For `C=C1CC[C@H]2[C@H](CN)[C@@H]([C@@]3(C)Cc4cn(-c5ncc(F)cn5)nc4C[C@@H]3CO)CC[C@]12C` [Ia-27, ((5R,6S)-5-((3aS,4R,5S,7aS)-4-(aminomethyl)-7a-methyl-1-methyleneoctahydro-1H-inden-5-yl)-2-(5-fluoropyrimidin-2-yl)-5-methyl-4,5,6,7-tetrahydro-2H-indazol-6-yl)methanol], the “Scoring: % of drug remaining” value in data set [2] was “C (“C” represents a PDR60 of 31 to 60%)”. For the same compound, the EC50 in data set [1] (setting [3]) is 6 to 15 µM.

These data come from US11773108B2, “Indene derivatives useful in treating pain and inflammation” (TARO PHARMACEUTICALS INC., priority 2018, dated 2023).
